One data set addresses T1, Kv1.6 (Homo sapiens, UniProt P17658).
T1 construct: expressed in transfected cells; host or cells: Chinese Hamster Ovary (CHO)
The data set can be described thus: cell-based. The settings on record: for IC50: CHO cells, whole-cell patch clamp, read-out: Potency IC50 (nM) Kv1.6; for Selectivity Kv1.6/Kv1.3: ratio IC50[Kv1.6]/IC50[Kv1.3]. Background: In patch-clamp work, channel activity is measured electrically.

For data set [1], the system named is Human peripheral blood mononuclear cells (PBMCs). The data set can be described thus: IL-2 release from anti-CD3 stimulated human PBMCs (Example 4a). Format: cell-based. The method, then: Human peripheral blood mononuclear cells (PBMCs) were used to assess the effects of Kv1.3 blockers on T-cell activation as determined by IL-2 (cytokine) release after stimulation with anti-CD3.
Human PBMCs were obtained from Precision for Medicine (Frederick, Md.). Cells from 5 donors were used. Plate-bound anti-CD3 was used to stimulate bulk T cells in the PBMC preparations. Briefly, 96-well plates were coated with anti-CD3 antibody for 2 hrs at 37° C., using 50 μL of a 0.5 μg/mL anti-CD3 solution diluted in 1×PBS. Thereafter the plates were washed twice.
Finally, 1×10^5 PBMCs were added to each well in a volume of 100 μL, giving a final volume of 200 μL per well. The plates were incubated for 20-24 hours in a 37° C./5% CO2 incubator. After centrifugation of the plates, 25 μl supernatant was transferred to IL-2 detection plates (MSD Human IL-2 Tissue Culture Kit, cat #K151AHB-2) and IL-2 was measures as described by the manufacturer (Meso Scale Discovery, Rockville, Md., USA).
Results are shown in Table 4a as geometric mean of IC50 values obtained from anti-CD3 stimulated human PBMC assays. All values derive from at least 4 replicates.

In data set [2] the target is T2, human Kv1.3 voltage-gated K+ channel (Homo sapiens, UniProt P22001).
T2 construct: host or cells: CHO-DUKX
T2 sequence (P22001 whole entry): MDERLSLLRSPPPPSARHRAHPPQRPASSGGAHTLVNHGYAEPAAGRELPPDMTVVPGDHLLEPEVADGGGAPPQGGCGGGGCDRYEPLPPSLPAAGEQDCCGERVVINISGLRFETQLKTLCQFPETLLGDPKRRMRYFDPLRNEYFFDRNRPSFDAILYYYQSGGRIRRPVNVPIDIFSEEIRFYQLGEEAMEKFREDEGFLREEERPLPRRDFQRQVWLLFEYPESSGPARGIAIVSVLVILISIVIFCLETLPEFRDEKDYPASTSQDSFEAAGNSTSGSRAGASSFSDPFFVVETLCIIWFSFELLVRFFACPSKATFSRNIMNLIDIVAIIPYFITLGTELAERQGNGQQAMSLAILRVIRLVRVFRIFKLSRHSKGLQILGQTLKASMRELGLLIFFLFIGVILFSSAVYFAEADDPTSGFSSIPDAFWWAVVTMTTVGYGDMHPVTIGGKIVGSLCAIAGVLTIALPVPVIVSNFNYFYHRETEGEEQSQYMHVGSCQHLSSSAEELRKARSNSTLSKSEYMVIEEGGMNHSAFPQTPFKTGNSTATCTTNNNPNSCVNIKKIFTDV
The data set can be described thus: cell-based.

In a further data set the target is T3, Kv1.2 (Homo sapiens, UniProt P16389).
T3 construct: expressed in transfected cells; host or cells: Chinese Hamster Ovary (CHO)
T3 sequence (P16389 whole entry): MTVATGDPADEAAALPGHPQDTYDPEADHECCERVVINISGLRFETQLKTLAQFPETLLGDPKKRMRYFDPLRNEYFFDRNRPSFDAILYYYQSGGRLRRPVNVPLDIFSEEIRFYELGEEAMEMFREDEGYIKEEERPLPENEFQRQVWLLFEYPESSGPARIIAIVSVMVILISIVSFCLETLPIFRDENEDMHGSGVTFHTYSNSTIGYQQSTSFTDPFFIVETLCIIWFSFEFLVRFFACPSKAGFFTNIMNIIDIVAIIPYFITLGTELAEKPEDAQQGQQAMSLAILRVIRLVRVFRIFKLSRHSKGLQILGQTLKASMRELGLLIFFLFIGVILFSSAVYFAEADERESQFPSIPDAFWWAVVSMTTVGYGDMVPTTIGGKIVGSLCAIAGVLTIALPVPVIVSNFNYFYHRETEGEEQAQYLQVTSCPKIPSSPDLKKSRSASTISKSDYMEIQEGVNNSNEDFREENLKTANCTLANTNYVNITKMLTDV
The data set can be described thus: cell-based. Particulars: for IC50: CHO cells, whole-cell patch clamp, read-out: Potency IC50 (nM) Kv1.2.

A further data set deals with T4, Kv1.1 (Homo sapiens, UniProt Q09470).
T4 construct: expressed in transfected cells; host or cells: Chinese Hamster Ovary (CHO)
T4 sequence (Q09470 whole entry): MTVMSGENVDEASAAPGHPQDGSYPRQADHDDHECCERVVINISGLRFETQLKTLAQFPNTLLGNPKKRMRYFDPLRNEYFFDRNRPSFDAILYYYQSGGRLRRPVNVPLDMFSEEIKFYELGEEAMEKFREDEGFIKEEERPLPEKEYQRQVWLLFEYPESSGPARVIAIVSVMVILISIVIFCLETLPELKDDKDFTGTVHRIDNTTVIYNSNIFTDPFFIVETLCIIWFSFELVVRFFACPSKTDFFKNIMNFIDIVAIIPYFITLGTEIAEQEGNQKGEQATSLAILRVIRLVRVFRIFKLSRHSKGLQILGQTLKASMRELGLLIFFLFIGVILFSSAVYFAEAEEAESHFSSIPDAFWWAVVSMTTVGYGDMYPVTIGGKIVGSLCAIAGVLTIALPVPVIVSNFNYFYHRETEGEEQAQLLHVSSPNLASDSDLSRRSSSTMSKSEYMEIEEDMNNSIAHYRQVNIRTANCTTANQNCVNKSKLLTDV
The data set can be described thus: cell-based. The settings on record: for IC50: CHO cells, whole-cell patch clamp, read-out: Potency IC50 (nM) Kv1.1; for Selectivity Kv1.1/Kv1.3: ratio IC50[Kv1.1]/IC50[Kv1.3].

The target in another data set is T5, Kv1.3 (Homo sapiens, UniProt P22001).
T5 construct: expressed in transfected cells; host or cells: Chinese Hamster Ovary (CHO)
T5 sequence (P22001 whole entry): as the sequence (P22001 whole entry) above
The data set can be described thus: cell-based. The settings on record: for IC50: CHO cells, whole-cell patch clamp, read-out: Potency IC50 (nM) Kv1.3.

The next data set concerns the target Rat whole blood (Rattus norvegicus, UniProt P15384).
Data set [3] relates to delayed-type hypersensitivity (DTH) ear swelling response. Format: in vivo, rat.
Another data set can be described thus: in vivo. The settings on record: male, rat, sc, 70 nmol/kg.
Where [4] appears, read: inhibition of thallium flux, CHO-DUKX cells with human Kv1.3, read-out: IC50.

The source of these data is US11780893B2, “Kv1.3 blockers” (Zealand Pharma A/S, priority 2019, dated 2023).

The structures appear in SMILES notation. pIC50: −log10 of the molar value. Like-named read-outs stand apart in the source and are kept apart here. Bridge positions count the residues as written; N and C are the ends. Square brackets hold non-standard residues; d marks the D form. Peptide text beside a SMILES is read from it. Nle = CCCC[C@H](N)C(=O)O

T1 sequence (P17658 whole entry): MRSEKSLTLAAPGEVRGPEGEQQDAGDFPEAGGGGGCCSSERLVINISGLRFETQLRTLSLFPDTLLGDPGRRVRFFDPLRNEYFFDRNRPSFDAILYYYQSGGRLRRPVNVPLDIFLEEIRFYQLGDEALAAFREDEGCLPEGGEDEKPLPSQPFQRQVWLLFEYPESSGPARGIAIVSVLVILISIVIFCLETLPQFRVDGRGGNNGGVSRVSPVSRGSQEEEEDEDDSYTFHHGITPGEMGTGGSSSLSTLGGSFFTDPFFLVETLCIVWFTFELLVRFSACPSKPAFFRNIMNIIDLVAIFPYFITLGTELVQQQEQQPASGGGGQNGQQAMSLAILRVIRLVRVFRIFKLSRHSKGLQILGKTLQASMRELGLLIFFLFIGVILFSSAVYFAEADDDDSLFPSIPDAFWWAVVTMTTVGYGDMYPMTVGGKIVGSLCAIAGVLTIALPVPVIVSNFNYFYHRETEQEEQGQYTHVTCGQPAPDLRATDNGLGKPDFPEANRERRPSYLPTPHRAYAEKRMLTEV
Rat whole blood, sequence (P15384 whole entry): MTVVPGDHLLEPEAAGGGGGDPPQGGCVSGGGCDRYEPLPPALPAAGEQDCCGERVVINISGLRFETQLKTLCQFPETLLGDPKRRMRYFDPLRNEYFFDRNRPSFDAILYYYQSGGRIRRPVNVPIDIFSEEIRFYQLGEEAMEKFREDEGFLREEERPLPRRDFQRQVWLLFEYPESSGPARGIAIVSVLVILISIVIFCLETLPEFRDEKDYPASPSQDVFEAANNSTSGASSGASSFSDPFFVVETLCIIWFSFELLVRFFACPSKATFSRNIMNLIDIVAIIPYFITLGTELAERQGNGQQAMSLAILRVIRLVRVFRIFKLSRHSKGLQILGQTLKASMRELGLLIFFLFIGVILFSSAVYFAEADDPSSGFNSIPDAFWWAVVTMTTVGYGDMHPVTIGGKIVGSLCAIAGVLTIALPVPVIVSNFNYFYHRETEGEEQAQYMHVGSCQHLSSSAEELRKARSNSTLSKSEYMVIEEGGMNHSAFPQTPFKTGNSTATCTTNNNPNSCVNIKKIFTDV

As to `CCCC[C@@H]1NC(=O)[C@@H]2CSSC[C@H](NC(=O)[C@H](CCCNC(=N)N)NC(=O)[C@H](CCSC)NC(=O)[C@H](CC(=O)O)NC(=O)[C@H](CCSC)NC(=O)[C@@H](N)CC(N)=O)C(=O)N[C@@H](CO)C(=O)N[C@@H](C)C(=O)N[C@@H](CO)C(=O)N[C@@H](C(C)C)C(=O)N[C@@H](CCC(=O)O)C(=O)N[C@H]3CSSC[C@H](NC(=O)[C@H](CCCCN)NC(=O)[C@H](CCCCN)NC(=O)[C@H](CC(N)=O)NC1=O)C(=O)N[C@@H](CCCCN)C(=O)N[C@H](C(=O)N[C@@H](Cc1ccc(O)cc1)C(=O)N1CCC[C@H]1C(=O)N[C@@H](CCCNC(=N)N)C(N)=O)CSSC[C@H](NC(=O)[C@H](CCCCN)NC(=O)[C@H](CCC(N)=O)NC(=O)[C@H](CCCCN)NC3=O)C(=O)N[C@@H](CC(C)C)C(=O)N[C@@H](CCCCN)C(=O)N[C@@H](C)C(=O)N[C@@H]([C@@H](C)CC)C(=O)NCC(=O)N[C@@H](CO)C(=O)N[C@@H]([C@@H](C)CC)C(=O)N[C@@H](Cc1ccccc1)C(=O)NCC(=O)N[C@@H](CCCCN)C(=O)N2` [Compound 16] (H-NMDMRCSASVECKQKCLKAIGSIFGKC[Nle]NKKCKCYPR-NH2; disulfide 6-27, 12-32, 16-34), the half-inhibitory concentration (IC50) (as a rule, the concentration needed to halve the response being measured) was 2460 nM at Kv1.6, 133 nM on Kv1.2, more than 3000 nM at Kv1.1 and 0.24 nM on Kv1.3. Also, the pIC50 is 10.30 in data set [1] (geometric mean, at least 4 replicates, read-out: anti-CD3 PBMC/IL-2 IC50) and 9.85 in [2] (setting [4]). In addition, the “Selectivity Kv1.1/Kv1.3” value at Kv1.1 is listed as more than 12600.

Consider `CC[C@H](C)[C@@H]1NC(=O)[C@H](C)NC(=O)[C@H](C)NC(=O)[C@H](CC(C)C)NC(=O)[C@@H]2CSSC[C@@H](C(=O)N[C@@H](Cc3ccc(O)cc3)C(=O)N3CCC[C@H]3C(=O)N[C@@H](CCCNC(=N)N)C(N)=O)NC(=O)[C@H](CCCCN)NC(=O)[C@@H]3CSSC[C@H](NC(=O)[C@H](CCC(=O)O)NC(=O)[C@H](C(C)C)NC(=O)[C@H](CO)NC(=O)[C@H](C)NC(=O)[C@H](CO)NC(=O)[C@@H](NC(=O)[C@H](CCCNC(=N)N)NC(=O)[C@H](CCSC)NC(=O)[C@H](CC(=O)O)NC(=O)[C@H](CCSC)NC(=O)[C@@H](N)CC(N)=O)CSSC[C@H](NC(=O)[C@H](CCCCN)NC(=O)CNC(=O)[C@H](Cc4ccccc4)NC(=O)[C@H]([C@@H](C)CC)NC(=O)[C@H](CO)NC(=O)CNC1=O)C(=O)N[C@@H](CCSC)C(=O)N[C@@H](CC(N)=O)C(=O)N[C@@H](CCCCN)C(=O)N[C@@H](CCCCN)C(=O)N3)C(=O)N[C@@H](CCCCN)C(=O)N[C@@H](CCC(N)=O)C(=O)N[C@@H](CCCCN)C(=O)N2` [Compound 52] (H-NMDMRCSASVECKQKCLAAIGSIFGKCMNKKCKCYPR-NH2; disulfide 6-27, 12-32, 16-34), for which the IC50 on Kv1.6 is more than 3000 nM; at Kv1.2 it was 88 nM; on Kv1.1, more than 3000 nM; at Kv1.3 it was 0.11 nM. Also, the “Selectivity Kv1.6/Kv1.3” value at Kv1.6 is on record as more than 27500. The pIC50 is not below 9.00 against Rat whole blood and 9.96 in data set [2] (setting [4]). In addition, the “% inhibition of ear thickness (AUC of Δ ear thickness 0-48 hours)” value in [3] (Exp #4, Kv1.3 blocker 100 nmol/kg SC 24 hrs prior to KLH challenge, CsA 10 mg/kg per os, +/- SD) was determined as 25.1%. In addition, the AUC(0-inf) (in general, total exposure, with the tail of the curve extrapolated) in “in vivo” was 0.0485 µM·h. The peak level in the data set “in vivo” (Cmax) was 31.2 nM. Besides, in the data set “in vivo”, the half-life – broadly, how long it takes for the measured level to halve – is 53.4 min. Besides, on Kv1.1, the “Selectivity Kv1.1/Kv1.3” value was more than 27500.

Consider `CCCC[C@H](NC(=O)[C@@H]1CCCN1)C(=O)N[C@@H](CCC(=O)O)C(=O)N[C@@H](CCCC)C(=O)N[C@@H](CCCNC(=N)N)C(=O)N[C@H]1CSSC[C@@H]2NC(=O)[C@H](CCCCN)NC(=O)CNC(=O)[C@H](Cc3ccccc3)NC(=O)[C@H]([C@@H](C)CC)NC(=O)[C@H](CO)NC(=O)CNC(=O)[C@H]([C@@H](C)CC)NC(=O)[C@H](C)NC(=O)[C@H](C)NC(=O)[C@H](CC(C)C)NC(=O)[C@@H]3CSSC[C@@H](C(=O)N[C@@H](Cc4ccc(O)cc4)C(=O)N4CCC[C@H]4C(=O)N[C@@H](CCCNC(=N)N)C(=O)O)NC(=O)[C@H](CCCCN)NC(=O)[C@H](CSSC[C@H](NC(=O)[C@H](CCC(=O)O)NC(=O)[C@H](C(C)C)NC(=O)[C@H](CO)NC(=O)[C@H](C)NC(=O)[C@H](CO)NC1=O)C(=O)N[C@@H](CCCCN)C(=O)N[C@@H](CCC(N)=O)C(=O)N[C@@H](CCCCN)C(=O)N3)NC(=O)[C@H](CCCCN)NC(=O)[C@H](CCCCN)NC(=O)[C@H](CC(N)=O)NC(=O)[C@H](CCCC)NC2=O` [Compound 97] (H-P[Nle]E[Nle]RCSASVECKQKCLAAIGSIFGKC[Nle]NKKCKCYPR-OH; disulfide 6-27, 12-32, 16-34), for which the IC50 on Kv1.6 is more than 3000 nM; at Kv1.2, 1120 nM; at Kv1.1 it was more than 3000 nM; at Kv1.3 it was 0.33 nM. In addition, the “Selectivity Kv1.6/Kv1.3” value on Kv1.6 is reported as more than 9100. Moreover, the pIC50 at Rat whole blood was not below 9.00; in data set [2] (setting [4]) it was 9.82. Also, the “% inhibition of ear thickness (AUC of Δ ear thickness 0-48 hours)” value in data set [3] (Exp #6, Kv1.3 blocker 100 nmol/kg SC 24 hrs prior to KLH challenge, CsA 10 mg/kg per os) came out at 42.5%; in data set [3] (Exp #8, Kv1.3 blocker 100 nmol/kg SC 24 hrs prior to KLH challenge, CsA 10 mg/kg per os), 37.7%. Further, the area under the curve AUC(0-inf) in “in vivo” worked out at 0.112 µM·h. For the same molecule, the highest level in the data set “in vivo” (Cmax) was 52.6 nM. The same molecule showed a half-life in “in vivo” of 62.4 min. The “Selectivity Kv1.1/Kv1.3” value at Kv1.1 is reported as more than 9100.

On to `CCCC[C@@H]1NC(=O)[C@@H]2CSSC[C@H](NC(=O)[C@H](CCCNC(=N)N)NC(=O)[C@H](CCCC)NC(=O)[C@H](CCC(=O)O)NC(=O)[C@@H](NC(=O)[C@@H]3CCCN3)[C@@H](C)CC)C(=O)N[C@@H](CO)C(=O)N[C@@H](C)C(=O)N[C@@H](CO)C(=O)N[C@@H](C(C)C)C(=O)N[C@@H](CCC(=O)O)C(=O)N[C@H]3CSSC[C@H](NC(=O)[C@H](CCCCN)NC(=O)[C@H](CCCCN)NC(=O)[C@H](CC(N)=O)NC1=O)C(=O)N[C@@H](CCCCN)C(=O)N[C@H](C(=O)N[C@@H](Cc1ccc(O)cc1)C(=O)N1CCC[C@H]1C(=O)N[C@@H](CCCNC(=N)N)C(=O)O)CSSC[C@H](NC(=O)[C@H](CCCCN)NC(=O)[C@H](CCC(N)=O)NC(=O)[C@H](CCCCN)NC3=O)C(=O)N[C@@H](CC(C)C)C(=O)N[C@@H](C)C(=O)N[C@@H](C)C(=O)N[C@@H]([C@@H](C)CC)C(=O)NCC(=O)N[C@@H](CO)C(=O)N[C@@H]([C@@H](C)CC)C(=O)N[C@@H](Cc1ccccc1)C(=O)NCC(=O)N[C@@H](CCCCN)C(=O)N2` [Compound 101] (H-PIE[Nle]RCSASVECKQKCLAAIGSIFGKC[Nle]NKKCKCYPR-OH; disulfide 6-27, 12-32, 16-34), for which the pIC50 is less than 5.52 at Kv1.6; not below 9.00 at Rat whole blood; 9.74 in data set [2]; 5.71 against Kv1.2; less than 5.52 against Kv1.1; 9.46 at Kv1.3. Also, the “% inhibition of ear thickness (AUC of Δ ear thickness 0-48 hours)” value in data set [3] (rat, in vivo) is reported as 44.5%. The area under the curve AUC(0-inf) in the data set “in vivo” amounted to 0.132 µM·h. Further, in “in vivo”, the Cmax (as a rule, the maximum level reached in the sampled fluid or tissue) worked out at 58.6 nM. The molecule also gave a half-life in the data set “in vivo” of 54.6 min.

For the molecule `CC[C@H](C)[C@H](N)C(=O)N[C@@H](CC(N)=O)C(=O)N[C@H](C(=O)N[C@@H](CCCCN)C(=O)N[C@H]1CSSC[C@@H]2NC(=O)[C@H](CCCCN)NC(=O)CNC(=O)[C@H](Cc3ccccc3)NC(=O)[C@H](CCCNC(=N)N)NC(=O)[C@H](CCSC)NC(=O)CNC(=O)[C@H](C)NC(=O)[C@H](CC(=O)O)NC(=O)[C@H](CCCCN)NC(=O)[C@@H]3CSSC[C@@H](C(=O)N[C@@H](Cc4ccc(O)cc4)C(=O)N[C@@H](CO)C(=O)O)NC(=O)[C@H](CCCNC(=N)N)NC(=O)[C@H](CSSC[C@H](NC(=O)[C@H](CCC(N)=O)NC(=O)[C@H](CCC(N)=O)NC(=O)[C@@H]4CCCN4C(=O)[C@H](CC(C)C)NC(=O)[C@H](CO)NC1=O)C(=O)N[C@@H]([C@@H](C)CC)C(=O)N[C@@H](CCCCN)C(=O)N1CCC[C@H]1C(=O)N3)NC(=O)[C@H](CCCCN)NC(=O)[C@H](CCCCN)NC(=O)[C@H](CC(N)=O)NC(=O)[C@H](CCSC)NC2=O)C(C)C` [Moka1, reference compound], the “IC50 of Moka1 relative to IC50 of test compounds and ShK186 (IL-2 secretion)” value in data set [1] (test compound IC50 lower than that of Moka1) was 10-100 fold.
